In patent US11759433B2, “Compositions and methods for regulating the endocannabinoid system” (Sytheon Ltd, priority 2019, dated 2023):
Where two headings read alike, the source gives them in different places.

Key:
[1] = target: T1, Monoacyl Glycerol Lipase (MAGL) (Homo sapiens, UniProt Q99685); test: Monoacyl Glycerol Lipase (MAGL) inhibitory activity; assay type: biochemical
T1 construct: purchased Cayman 10007812
T1 sequence (Q99685 1-303): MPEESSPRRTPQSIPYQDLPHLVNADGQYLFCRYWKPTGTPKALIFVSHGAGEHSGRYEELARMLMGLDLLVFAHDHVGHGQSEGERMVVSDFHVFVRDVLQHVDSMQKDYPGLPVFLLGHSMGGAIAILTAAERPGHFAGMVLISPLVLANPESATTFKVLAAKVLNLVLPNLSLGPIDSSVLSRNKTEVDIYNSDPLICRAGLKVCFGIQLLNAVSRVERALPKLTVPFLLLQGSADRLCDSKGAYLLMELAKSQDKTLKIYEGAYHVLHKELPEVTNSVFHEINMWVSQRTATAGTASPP
Protocol: A 0.1 gram of sample of each of the indicated Test Samples identified in Table 3 was dissolved in 1 mL DMSO to make stock solution. […] Final concentration in well: 10 μL of sample, 5.6 mU MAGL (Cayman cat. #10007812), and 23.6 μM 2Arachidonoyl Glycerol (Cayman cat. #62160). This study was done by following the protocol described by J L Blankman et al. (Blankmann et., A comprehensive profile of brain enzymes that hydrolyze the endocannabinoid 2-Arachidonyl glycerol, Chem & Biol, 14(12); 1347-1356, 2007).

IL-8 = IL-8 output in RHE-conditioned medium (sandwich ELISA); assay type: cell-based, Human; conditions: for IL-8 (% Control): 2 mg/cm^2 on RHE; for Effect on level of IL-8, in words: tissue culture conditioned medium
Protocol: (§1) A series of tests were conducted to assess the impact of the compositions according to the present teaching on the stress biomarkers cortisol and interleukin-8 8). The compounds and compositions to be evaluated were stored at room temperature prior to use and, for use, were solubilized in caprylic acid/caprylic triglycerides. The tests were conducted using reconstituted human epithelium-conditioned medium. Reconstituted Human Epidermis tissues were obtained from Zen-Bio (Research Triangle, NC; order #51500) and were stored o/n at 4° C. The following day the tissues were transferred to 6 well plates and allowed to equilibrate for 4 h in the medium provided by the manufacturer (ZenSkin RHE Assay Medium, lot #031620). Thereafter the medium was change with fresh medium and the Test Materials, as identified in Table 4, applied to the tissue samples in an amount of 2 mg/cm^2 with a positive displacement pipette and spread evenly on top of the tissues. The solvent was used as the negative control.
IL-8—Similarly, interleukin-8 (IL-8) output in the cell culture conditioned medium was measured by sandwich ELISA using antibody pair from Invitrogen (ThermoFisher, kit cat. #CHC1303) and antibody pair from BioLegend (cat. #501101 and #501201), respectively. All colorimetric measurements were performed using Molecular Devices microplate reader MAX190 and SoftMax3.1.2PRO software.
(§2) In both studies the statistical significance was assessed with two-tail Student test. Deviations of ≥15% as compared to water control with p values below 0.05 were considered statistically significant.

Cortisol = Cortisol output in RHE-conditioned medium; assay type: cell-based, Human; conditions: for Cortisol (% Control): 2 mg/cm^2 on RHE; for Cortisol (% Control) / Cortisol std MTT (% Control): 48 h; for Cortisol std MTT (% Control): standardised to MTT tissue viability
Protocol: as §1
Cortisol—After 48 h of incubation, the cortisol output in the cell culture conditioned medium was measured with the Cortisol Parameter Assay Kit from RnD (Minneapolis, MN cat. #KGE008B), while tissue viability was assessed by the MTT technique, using the manufacturer's protocol and reagents.
as §2

[2] = target: T2, Fatty Acid Binding Protein 5 (FABP5) (Homo sapiens, UniProt Q01469); test: Fatty Acid Binding Protein 5 inhibitory activity (FABP-5 ELISA kit)
T2 construct: purchased Raybiotech 268-10276-1
Protocol: 0.1 gram of sample of each of the indicated Test Samples identified in Table 3 was dissolved in 1 mL DMSO and diluted with Diluent C from the FABP-5 ELISA Kit (Raybiotech #ELH-FABP5) to a make stock solution of 800 μg/ml. […] 50 μl of sample and 50 μl of 200 ng/ml of FABP-5 (Raybiotech #268-10276-1) was added per well for the analysis. The analysis was done following protocol of the aforementioned kit.

[3] = target: T3, Fatty Acid Amide Hydrolase (FAAH) (Homo sapiens, UniProt O00519); test: FAAH inhibitor screening assay (Cayman kit); assay type: biochemical
T3 construct: purchased Cayman 10005196
T3 sequence (O00519 1-579): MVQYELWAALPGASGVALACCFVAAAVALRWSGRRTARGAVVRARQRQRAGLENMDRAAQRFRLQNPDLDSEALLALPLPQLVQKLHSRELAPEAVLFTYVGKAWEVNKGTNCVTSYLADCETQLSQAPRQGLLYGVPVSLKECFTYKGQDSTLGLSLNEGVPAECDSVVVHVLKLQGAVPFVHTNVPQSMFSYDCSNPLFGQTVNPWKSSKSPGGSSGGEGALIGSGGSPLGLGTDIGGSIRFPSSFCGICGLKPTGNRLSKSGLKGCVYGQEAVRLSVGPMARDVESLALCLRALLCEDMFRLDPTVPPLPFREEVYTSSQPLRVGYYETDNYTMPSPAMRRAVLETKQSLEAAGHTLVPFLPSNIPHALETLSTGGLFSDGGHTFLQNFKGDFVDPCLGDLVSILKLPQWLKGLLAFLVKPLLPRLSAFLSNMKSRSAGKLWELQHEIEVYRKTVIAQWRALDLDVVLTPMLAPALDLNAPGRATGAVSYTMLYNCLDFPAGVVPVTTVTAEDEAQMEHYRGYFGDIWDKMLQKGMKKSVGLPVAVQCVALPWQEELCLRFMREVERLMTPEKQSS
Protocol: A 0.01 gram of sample of each of the indicated Test Samples identified in Table 3 was dissolved in 1 mL DMSO to make stock solution. […] The analysis was done following FAAH inhibitor screening assay kit (Cayman cat #10005196) protocol.

[4] = read-out: MAGL IC50 (converted)
[5] = read-out: FAAH IC50 (converted)

T2 sequence (Q01469 whole entry): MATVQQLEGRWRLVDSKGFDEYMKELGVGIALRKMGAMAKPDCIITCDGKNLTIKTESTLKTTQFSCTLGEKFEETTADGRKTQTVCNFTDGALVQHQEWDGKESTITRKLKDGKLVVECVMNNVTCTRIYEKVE

IC50 [1, 4] [µM]	IC50 [2] [µM]	IC50 [3, 5] [µM]	Compound	IL-8 (% Control) (IL-8; 0.1%)	IL-8 (% Control) (IL-8; 0.25%)	IL-8 (% Control) (IL-8; 0.5%)	Effect on level of IL-8, in words (IL-8)	Cortisol (% Control) (Cortisol; 0.1%)	Cortisol std MTT (% Control) (Cortisol; 0.1%)	Cortisol (% Control) (Cortisol; 0.25%)	Cortisol std MTT (% Control) (Cortisol; 0.25%)	Cortisol (% Control) (Cortisol; 0.5%)	Cortisol std MTT (% Control) (Cortisol; 0.5%)	IC50 [1] [µM]	IL-8 (% Control) (IL-8; 1%)	Cortisol (% Control) (Cortisol; 1%)	Cortisol std MTT (% Control) (Cortisol; 1%)	Effect on level of cortisol, in words (Cortisol; higher levels)	Effect on level of cortisol, in words (Cortisol; low levels)	IC50 ([3]; FAAH IC50) [µM]
183	449	6.71	C=C[C@@](C)(/C=C/c1ccc(O)cc1)CCC=C(C)C [Bakuchiol]	92	92	86	marginal effect in reducing	51	56	64	87	54	79	–	–	–	–	–	–	–
–	–	–	C=C(C)[C@@H]1CCC(C)=C[C@H]1c1c(O)cc(CCCCC)cc1O [Cannabidiol 99, Cannabidiol]	103	–	107	no effect or marginally increased	72	82	–	–	84	95	13100	108	134	174	increased the cortisol level	modest decrease in cortisol	99.5
–	–	3.6	CCCCC/C=C\C/C=C\CCCCCCCC(=O)OCC [Ethyl Linoleate 98, Ethyl linoleate]	–	–	–	–	–	–	–	–	–	–	–	–	–	–	–	–	–
7710	1490	9.81	CCCCC/C=C\C/C=C\CCCCCCCC(=O)OCC [Ethyl Linoleate (Synovea ® EL), Ethyl linoleate]	–	–	–	–	–	–	–	–	–	–	–	–	–	–	–	–	–
